Results reported in US12138256B2, “Treatment of cardiopulmonary disorders” (Bayer Aktiengesellschaft, priority 2021, dated 2024).
“And” between values parts separate entries of the source, which are not always exact repeats. Equal entries are not always repeated.

System: thromboxane analog U46619 induced PAH in minipigs
Assay: Haemodynamics (PAP, BP) in the anesthetized thromboxane challenged PAH minipig after inhaled (nebulized) application (C-2.1)
Assay type: in vivo, Göttingen minipig
Conditions: for PAP % change vs. baseline / PAP % changes vs prevalue, mean / BP % change vs. baseline: 100 μg/kg nominal dose; for PAP % change vs. baseline / BP % change vs. baseline: individual animals; for PAP % changes vs prevalue, mean: n = 3; for % changes in BP vs baseline / % changes in PAP vs baseline: inhaled 30 μg/kg
Method in brief: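 Anesthetized, ventilated Göttingen minipigs (2-6 kg) given continuous infusion (0.3-0.75 μg/kg/min) to raise mean PAP above 25 mmHg, dosing starting after a 30 min plateau. Compound in 1% DMSO/0.2% citric acid, pH 8, nebulized via Aeroneb Pro into the inspiratory arm (~7 min; stock 300 μg/kg). PAP by Swan-Ganz catheter, BP via carotid catheter.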

Compound: O=C(O)c1ccc(CCN(CCc2ccccc2OCc2ccc(-c3ccc(C(F)(F)F)cc3)cc2Cl)[C@H]2CCCc3nc(C(=O)O)ccc32)cc1 [comparative example 11, (5S)-5-{[2-(4-carboxyphenyl)ethyl][2-(2-{[3-chloro-4′-(trifluoromethyl)[biphenyl]-4-yl]methoxy}phenyl)ethyl]amino}-5,6,7,8-tetrahydroquinoline-2-carboxylic acid]
- PAP % change vs. baseline (inhaled, time 190 min): 77.0% and 61.7% and 68.1%
- PAP % changes vs prevalue, mean (inhaled, time 190 min): −30.5%
- BP % change vs. baseline (inhaled, time 200 min): 99.9% and 90.4% and 98.2%
- PAP % change vs. baseline (inhaled, time 200 min): 77.0% and 62.5% and 68.2%
- PAP % changes vs prevalue, mean (inhaled, time 200 min): −30.9%
- BP % change vs. baseline (inhaled, time 210 min): 98.8% and 90.4% and 97.3%
- PAP % change vs. baseline (inhaled, time 210 min): 76.5% and 62.0% and 67.9%
- PAP % changes vs prevalue, mean (inhaled, time 210 min): −30.6%
- BP % change vs. baseline (inhaled, time 220 min): 101.0% and 90.4% and 97.3%
- PAP % change vs. baseline (inhaled, time 220 min): 77.2% and 61.2% and 68.1%
- PAP % changes vs prevalue, mean (inhaled, time 220 min): −31.6%
- BP % change vs. baseline (inhaled, time 230 min): 99.9% and 90.4% and 96.3%
- PAP % change vs. baseline (inhaled, time 230 min): 76.3% and 61.2% and 67.7%
- PAP % changes vs prevalue, mean (inhaled, time 230 min): −31.2%
- BP % change vs. baseline (inhaled, time 240 min): 98.8% and 89.5% and 95.4%
- PAP % change vs. baseline (inhaled, time 240 min): 76.5% and 62.5% and 67.8%
- PAP % changes vs prevalue, mean (inhaled, time 240 min): −31.0%
- BP % change vs. baseline (inhaled, time 250 min): 98.8% and 89.5% and 95.4%
- PAP % change vs. baseline (inhaled, time 250 min): 77.6% and 63.0% and 69.1%
- BP % change vs. baseline (inhaled, time 260 min): 97.7% and 87.7% and 95.4%
- PAP % change vs. baseline (inhaled, time 260 min): 77.4% and 62.0% and 67.4%
- BP % change vs. baseline (inhaled, time 270 min): 96.6% and 86.8% and 99.2%
- PAP % change vs. baseline (inhaled, time 270 min): 77.5% and 61.5% and 67.9%
- BP % change vs. baseline (inhaled, time 280 min): 96.6% and 86.8% and 96.3%
- PAP % change vs. baseline (inhaled, time 280 min): 77.5% and 63.0% and 68.1%
- BP % change vs. baseline (inhaled, time 290 min): 97.7% and 86.8% and 94.4%
- PAP % change vs. baseline (inhaled, time 290 min): 77.3% and 62.5% and 67.8%
- BP % change vs. baseline (inhaled, time 300 min): 96.6% and 85.1% and 93.4%
- PAP % change vs. baseline (inhaled, time 300 min): 78.1% and 63.0% and 67.3%
- BP % change vs. baseline (inhaled, time 310 min): 95.5% and 83.3% and 93.4%
- PAP % change vs. baseline (inhaled, time 310 min): 76.7% and 60.5% and 68.1%
- BP % change vs. baseline (inhaled, time 320 min): 95.5% and 81.6% and 92.5%
- PAP % change vs. baseline (inhaled, time 320 min): 75.6% and 63.2% and 67.7%
- BP % change vs. baseline (inhaled, time 330 min): 95.5% and 79.8% and 92.5%
- PAP % change vs. baseline (inhaled, time 330 min): 76.5% and 63.0% and 67.6%
- duration of action compared to Ventavis (PAH minipig model, inhaled): more than 6 times
- time of maximum effect on PAP (after inhaled application (nebulization), comparative example 11 30 μg/kg, Cinaciguat 3 and 10 μg/kg, Riociguat 100 μg/kg, comparative example 3 30 μg/kg): around 60 min
- % changes in BP vs baseline (0 min vs. start inhalation): 99%
- % changes in PAP vs baseline (0 min vs. start inhalation): 100% and 99%
- % changes in BP vs baseline (10 min vs. start inhalation): 99% and 100%
- % changes in PAP vs baseline (10 min vs. start inhalation): 102% and 99%
- % changes in BP vs baseline (20 min vs. start inhalation): 96% and 98%
- % changes in PAP vs baseline (20 min vs. start inhalation): 101% and 97%
- % changes in BP vs baseline (30 min vs. start inhalation): 94% and 95%
- % changes in PAP vs baseline (30 min vs. start inhalation): 101% and 97%
- % changes in BP vs baseline (40 min vs. start inhalation): 91%
- % changes in PAP vs baseline (40 min vs. start inhalation): 100% and 97%
- % changes in BP vs baseline (50 min vs. start inhalation): 89% and 90%
- % changes in PAP vs baseline (50 min vs. start inhalation): 102% and 96%
- % changes in BP vs baseline (60 min vs. start inhalation): 86% and 88%
- % changes in PAP vs baseline (60 min vs. start inhalation): 101% and 96%
- % changes in BP vs baseline (70 min vs. start inhalation): 86% and 85%
- % changes in PAP vs baseline (70 min vs. start inhalation): 103% and 95%
- % changes in BP vs baseline (80 min vs. start inhalation): 85% and 86%
- % changes in PAP vs baseline (80 min vs. start inhalation): 101% and 94%
- % changes in BP vs baseline (90 min vs. start inhalation): 85%
- % changes in PAP vs baseline (90 min vs. start inhalation): 102% and 94%
- % changes in BP vs baseline (100 min vs. start inhalation): 85% and 84%
- % changes in PAP vs baseline (100 min vs. start inhalation): 103% and 92%
- % changes in BP vs baseline (110 min vs. start inhalation): 84%
- % changes in PAP vs baseline (110 min vs. start inhalation): 102% and 94%
- % changes in BP vs baseline (120 min vs. start inhalation): 85% and 84%
- % changes in PAP vs baseline (120 min vs. start inhalation): 101% and 92%
- % changes in BP vs baseline (130 min vs. start inhalation): 85%
- % changes in PAP vs baseline (130 min vs. start inhalation): 102% and 95%
- % changes in BP vs baseline (140 min vs. start inhalation): 85%
- % changes in PAP vs baseline (140 min vs. start inhalation): 101% and 95%
- % changes in BP vs baseline (150 min vs. start inhalation): 84%
- % changes in PAP vs baseline (150 min vs. start inhalation): 100% and 92%
- % changes in BP vs baseline (160 min vs. start inhalation): 85% and 84%
- % changes in PAP vs baseline (160 min vs. start inhalation): 100% and 91%
- % changes in BP vs baseline (170 min vs. start inhalation): 86% and 85%
- % changes in PAP vs baseline (170 min vs. start inhalation): 101% and 91%
- % changes in BP vs baseline (180 min vs. start inhalation): 86%
- % changes in PAP vs baseline (180 min vs. start inhalation): 101% and 91%
- % changes in BP vs baseline (190 min vs. start inhalation): 86% and 84%
- % changes in PAP vs baseline (190 min vs. start inhalation): 101% and 91%
- % changes in BP vs baseline (200 min vs. start inhalation): 87% and 83%
- % changes in PAP vs baseline (200 min vs. start inhalation): 101% and 90%
- % changes in BP vs baseline (210 min vs. start inhalation): 88% and 84%
- % changes in PAP vs baseline (210 min vs. start inhalation): 101% and 91%
- % changes in BP vs baseline (220 min vs. start inhalation): 87%
- % changes in PAP vs baseline (220 min vs. start inhalation): 99% and 92%
- % changes in BP vs baseline (230 min vs. start inhalation): 89% and 86%
- % changes in PAP vs baseline (230 min vs. start inhalation): 102% and 91%
- % changes in BP vs baseline (240 min vs. start inhalation): 88% and 85%
- % changes in PAP vs baseline (240 min vs. start inhalation): 99% and 92%
- % changes in BP vs baseline (−5 min vs. start inhalation): 101% and 96%
- % changes in PAP vs baseline (−5 min vs. start inhalation): 99%
- effect on systemic BP (inhaled, 30 μg/kg): did not show any decrease on systemic BP
- lung selectivity (inhaled, nominal dose of 100 μg/kg): good lung selectivity
- duration of action (inhaled, Ventavis 10 μg/kg nominal dose, comparative example 11 10, 30 and 100 μg/kg nominal dose, 240 min observation interval): ≥ 240 min
